The text below walks through data of patent US11512074B2, “Substituted diamino heterocyclic carboxamide compound and a composition containing the compound and use thereof” (Shenzhen TargetRx, Inc., priority 2018, dated 2022).

For one data set, the system named is MOLM-13 cells. In words: Inhibition of cell MOLM-13 proliferation (CTG assay). The data set is classed as cell-based. Conditions: Homo sapiens, 72 hours, read-out: MOLM-1 IC50. The text has this:
(§1) Cell MV-4-11 (ATCC, Cat. No. CRL-9591), cell MOLM-13 (COBIOER, Cat. No. CBP60678), RPMI-1640 (GIBCO, Cat. No. A10491-01), penicillin-streptomycin (GIBCO, Cat. No. 15140-122), fetal bovine serum (GIBCO, Cat. No. 10099-141), phosphate buffer solution PBS (GIBCO, Cat. No. 10010-031), DMSO (Sigma, Cat. No. D8418-1L), CelltiterGlo Assay kit (CTG) (Promega, Cat. No. G7573), 96-well plate with transparent flat bottom and black walls (PerkinElmer, Cat. No. 6005680-50), plate shaker (QILINBEIER, Cat. No. B-9002), centrifuge (Eppendorf, Cat. No. 5804R), CO2 incubator (Thermo Scientific, Cat. No. 371), microscope (OLYMPUS Cat. No. CKX41), multi-plate reader (PerkinElmer, Cat. No. EnVision).
(§2) (2) Preparation of Cell Suspension • a) The medium was collected from the culture bottle and centrifuged at 1000 rpm for 5 min. • b) The supernatant was discarded, and the cells were resuspended in medium containing 10% fetal bovine serum, and counted to prepare a cell suspension (cell viability was greater than 90%). • c) The cell suspension was added into a 96-well plate, with […] in each well, namely 5000 MV-4-11 cells/well; 5000 MOLM-13 cells/well. • d) The cell plate was cultured overnight in a 37° C., 5% CO2 incubator.
(§3) Dilution of Compounds in DMSO: • a) MV-4-11 cells: The compounds were diluted with DMSO from 10 mM to 60 uM, and then subjected to a 3-fold serial gradient dilution in DMSO from 60 uM, resulting in 9 concentrations. • b) MOLM-13 cells: The compounds were diluted with DMSO from 10 mM to 200 uM, and then subjected to a 3-fold serial gradient dilution in DMSO from 200 uM, resulting in 9 concentrations. • c) Compound Taxol was diluted with DMSO from 10 mM to 200 uM, and then subjected to a 3-fold serial gradient dilution in DMSO from 200 uM, resulting in 9 concentrations.
(§4) (4) Treatment of Cells with Compounds (after the Overnight Incubation of the Cell Plate) • a) Each well was replenished with 99 μl of growth medium containing 10% FBS, and then 1 μl of the diluted compound was added to the well. The concentration of DMSO was 0.5%. • b) Concentrations of the tested compounds were: MV-4-11 cells: 300, 100, 33.3, 11.1, 3.7, 1.23, 0.41, 0.137, 0.046, 0 [nM]. • MOLM-13 cells: 1000, 333.3, 111.1, 37.04, 12.35, 4.1, 1.37, 0.46, 0.15, 0 [nM]. • c) Concentrations of control compound Taxol were: 1000, 333.3, 111.1, 37.04, 12.35, 4.12, 1.37, 0.46, 0.15, 0 [nM]. • d) The cell plate was placed in the incubator for 72 hours.
(§5) (5) CTG Assay • a) The test plate was placed at room temperature and equilibrated for 30 minutes, and 60 μl of the culture medium was discarded. • b) 60 μl of CTG reagent (CelltiterGlo kit) was added, and the plate was placed on a rapid plate shaker to shake for 2 min, and then let it stand at room temperature for 20 min. • c) Envision was used to read the values.
(§6) IC50 values were calculated using GraphPad Prism 6 software. The IC50 (half inhibitory concentration) values of the compounds were obtained by the following non-linear fitting formula. Y=Bottom+(Top−Bottom)/(1+10^((Log IC50−X)*HillSlope)) • X: Log value of the compound concentration • Y: Inhibition rate (% inhibition) % inhibition (inhibition rate)=100*(value of the High Control-value of the test compound well)/(value of the High Control-value of the Low Control)

The nature of data set [1]: Pharmacokinetic experiment in rats. The data set is classed as in vivo, Sprague-Dawley rats. The conditions noted are these: rat; for AUC(0-t) / Cmax / Tmax / half-life / AUC(0-inf) / MRT inf: male, Sprague-Dawley, plasma; for AUC(0-inf): read-out: AUCINF_pred; for MRT inf: read-out: MRTINF_pred. How it is done:
Six male Sprague-Dawley rats, 7 to 8 weeks old, weighing approximately 210 g, were divided into 2 groups with 3 rats in each group. The pharmacokinetic differences of the compounds were compared after they were administered to the rats at a single dose through vein (in vein 3 mg/kg) or mouth (orally 10 mg/kg).
The rats were fed with standard feed and water, and fasted 16 hours before the experiment. The drugs were dissolved with PEG400 and dimethyl sulfoxide. The blood samples were collected from eyelids at the time point of 0.083, 0.25, 0.5, 1, 2, 4, 6, 8, 12 and 24 hours after administration.
The rats were anesthetized for a short time after inhaling ether, and 300 μL of blood samples was collected from the eyelids and put into test tubes, which contains 30 μL of 1% heparin salt solution. The test tubes were dried overnight at 60° C. prior to use. After the blood sample collection at the last time point, the rats were sacrificed after the ether anesthesia.
Immediately after the collection of the blood samples, the test tubes were gently inverted at least 5 times to ensure the fully mixing and placed on ice. The blood samples were centrifuged at 4° C., 5000 rpm for 5 minutes to separate the plasma from the red blood cells. 100 μL of plasma was pipetted into a clean plastic centrifuge tube, with the name of the compound and time point on it. The plasma was stored at −80° C. before analysis, and LC-MS/MS was used to determine the concentration of the compounds disclosed herein in plasma. Pharmacokinetic parameters were calculated based on the plasma concentrations of each animal at different time points.

In the next data set the test system is MV-4-11 cells. In words: Inhibition of cell MV-4-11 proliferation (CTG assay). The data set is classed as cell-based. The conditions noted are these: Homo sapiens, MV4-11, 72 hours.
Excerpt: as §1, §2, §3, §4, §5, §6

The test system of the next data set is Ba/F3 parental cells. In words: Inhibition of Ba/F3 parental cell proliferation (CTG). The data set is classed as cell-based. Conditions: Mus musculus, BaF3, 72 hours, with IL-3. How it is done: (§7) Cell lines were cultured under the condition of 37° C., 5% CO2 and 95% humidity: cell line Ba/F3 parental (suspended, 3000 cells/well, medium was RPMI-1640+10% FBS+8 ng/ml IL-3), cell line Ba/F3 FLT3-ITD (suspended, 3000 cells/well, medium was RPMI-1640+10% FBS)
(§8) Reagents and materials: Fetal bovine serum (FBS, GBICO, Cat. No. 10099-141), CellTiter-Glo® Luminescent Cell Viability Assay (Promega, Cat. No. G7572), 96-well plate with transparent flat bottom and black walls (Corning®, Cat. No. 3603), control compound AC220 (Selleck, Cat. No. S1526).
(§9) Cell Culture and Inoculation: • 1. Cells in the logarithmic growth phase were harvested and counted using a platelet counter. The cell viability was determined by trypan blue exclusion method to ensure that the cell viability was greater than 90%; • 2. The cell concentration was adjusted and 90 μL of the cell suspension was added into a 96-well plate respectively; • 3. The cells in the 96-well plate were cultured overnight under the condition of 37° C., 5% CO2 and 95% humidity.
(§10) Drug Dilution and Dosing: • 1. The 10-fold drug solutions were prepared with a maximum concentration of 100 μM, which was diluted using a 3.16-fold serial gradient dilution, resulting in 9 concentrations. 10 μL of the drug solutions was added to each well of the 96-well plate inoculated with Ba/F3 parental cells; and each drug concentration was set in triplicate. • 2. The 10-fold drug solutions were prepared with a maximum concentration of 10 μM, which was diluted using a 3.16-fold serial gradient dilution, resulting in 9 concentrations. 10 μL of the drug solutions was added to each well of the 96-well plate inoculated with Ba/F3 FLT3-ITD cells; and each drug concentration was set in triplicate. • 3. The cells in the 96-well plate with drugs were cultured at 37° C., 5% CO2 and 95% humidity for 72 hours, and then CTG analysis was carried out.
(§11) Plate Reading at the End Point: • 1. CTG reagent was thawed and the cell plate was equilibrated to room temperature for 30 minutes; • 2. Equal volume of the CTG solution was added to each well; • 3. The cell plate was shaked on the orbital shaker for 5 minutes to lyse the cells; • 4. The cell plate was placed at room temperature for 20 minutes to stabilize the cold light signal; • 5. The cold light values were read.
(§12) GraphPad Prism 8.0 software was used to analyze the data, and the data was fitted using the non-linear S-curve regression to get a dose-effect curve, and IC50 values were calculated. Cell viability (%)=(Lum of test drug−Lum of medium control)/(Lum of cell control−Lum of medium control)×100%.

The next data set concerns Ba/F3 FLT3-ITD cells. In words: Inhibition of Ba/F3 FLT3-ITD cell proliferation (CTG). Type of data set: cell-based. The conditions noted are these: 72 hours, read-out: BaF3 [FLT3-ITD] IC50. How it is done:
as §7, §8, §9, §10, §11, §12

Read-outs that look alike come from different tables or passages of the source.

As to `[2H]C([2H])([2H])C([2H])([2H])c1nc(C(N)=O)c(Nc2ccc(N3CCC(N4CCN(C)CC4)CC3)c(OC)c2)nc1NC1CCOCC1` [Compound T-4, 6-(ethyl-d5)-3-((3-methoxy-4-(4-(4-methylpiperazin-1-yl)piperidin-1-yl)phenyl)amino)-5-((tetrahydro-2H-pyran-4-yl)amino)pyrazine-2-carboxamide], the IC50 – broadly, the concentration that inhibits the measured activity by half – in the data set on MOLM-13 cells was 13 nM. In addition, in data set [1] (IV 3 mg/kg), the AUC(0-t) (as a rule, exposure summed from dosing to a finite time, without extrapolation to infinity) is 639 ng·h/mL; the concentration peaked (Cmax) at 138 ng/mL; the Tmax (in general, the time at which the peak concentration occurs) is 0.08 h; the half-life – broadly, the time needed for the level to fall by half in the phase considered – was 4.52 h. In data set [1] (IV 3 mg/kg), the AUC(0-inf) is 651 ng·h/mL, the MRT inf is 4.56 h and the Vz_pred amounted to 30.45 L/kg. Further, in data set [1] (PO 10 mg/kg), the AUC(0-t) was determined as 666 ng·h/mL, the Cmax (usually the highest concentration seen after dosing) was found to be 61.2 ng/mL, the Tmax amounted to 4 h and the half-life was 4.07 h. For the same compound, in data set [1] (PO 10 mg/kg), the AUC(0-inf) was found to be 687 ng·h/mL, the MRT inf is 8.11 h and the Vz_pred is recorded as 87.60 L/kg. For the same compound, the F in data set [1] (PO 10 mg/kg vs IV 3 mg/kg) is on record as 31.26%. Further, the midpoint of inhibition in the data set with MV-4-11 cells, the IC50, lay at 1.92 nM.

For the compound `[2H]C([2H])([2H])Oc1cc(Nc2nc(NC3CCOCC3)c(C([2H])([2H])C([2H])([2H])[2H])nc2C(N)=O)ccc1N1CCC(N2CCN(C)CC2)CC1` [Compound T-6, 6-(ethyl-d5)-3-((3-(methoxy-d3)-4-(4-(4-methylpiperazin-1-yl)piperidin-1-yl)phenyl)amino)-5-((tetrahydro-2H-pyran-4-yl)amino)pyrazine-2-carboxamide], the IC50 is over 10000 nM in the data set with Ba/F3 parental cells, 11.9 nM with MOLM-13 cells, 2.07 nM in the data set on MV-4-11 cells and 69.1 nM in the data set on Ba/F3 FLT3-ITD cells.

For the compound `[2H]C1([2H])CN(c2ccc(Nc3nc(NC4CCOCC4)c(CC)nc3C(N)=O)cc2OC)CC([2H])([2H])C1N1CCN(C)CC1` [Compound T-7, 6-ethyl-3-((3-methoxy-4-(4-(4-methylpiperazin-1-yl)piperidin-1-yl-3,3,5,5-d4)phenyl)amino)-5-((tetrahydro-2H-pyran-4-yl)amino)pyrazine-2-carboxamide], the IC50 stood at 8430 nM in the data set with Ba/F3 parental cells, 12.7 nM with MOLM-13 cells, 1.64 nM in the data set on MV-4-11 cells and 53.9 nM in the data set with Ba/F3 FLT3-ITD cells.
